According to US6379879B2, “Color photographic silver halide material” (Agfa-Gevaert, priority 2000, dated 2002):

Assay: pKa of oil formers by titration with tetrabutylammonium hydroxide
Type: physicochemical
Conditions: titration with TBAH in dimethyl sulfoxide/water (100:0.25)

In the case of tricresyl phosphate [TCP], the “pKa of oil former” value is reported as greater than 20.
